According to the CheMixHub viscosity set:
± gives the uncertainty stated by the source.

Experiment: xn = mol fraction of the nth substance listed

CC#N + CCCO
viscosity [mPa·s]
Settings | 293.15 K | 298.15 K | 303.15 K | 308.15 K | 313.15 K | 323.15 K
101 kPa, x1 = 0.0674 | – | 1.557 ± 0.02 | 1.267 ± 0.016 | 1.035 ± 0.013 | – | –
101 kPa, x1 = 0.1534 | – | 1.243 ± 0.015 | 1.027 ± 0.013 | 0.845 ± 0.01 | – | –
101 kPa, x1 = 0.2933 | – | 0.903 ± 0.011 | 0.761 ± 0.009 | 0.645 ± 0.008 | – | –
101 kPa, x1 = 0.3889 | – | 0.738 ± 0.009 | 0.631 ± 0.007 | 0.54 ± 0.006 | – | –
101 kPa, x1 = 0.4881 | – | 0.622 ± 0.007 | 0.539 ± 0.006 | 0.469 ± 0.006 | – | –
101 kPa, x1 = 0.5995 | – | 0.519 ± 0.006 | 0.459 ± 0.005 | 0.407 ± 0.005 | – | –
101 kPa, x1 = 0.703 | – | 0.438 ± 0.005 | 0.39 ± 0.005 | 0.351 ± 0.004 | – | –
101 kPa, x1 = 0.7951 | – | 0.393 ± 0.005 | 0.354 ± 0.004 | 0.321 ± 0.004 | – | –
101 kPa, x1 = 0.909 | – | 0.361 ± 0.004 | 0.329 ± 0.004 | 0.303 ± 0.004 | – | –
101.3 kPa, x1 = 0.1388 | – | 1.295 ± 0.031 | 1.166 ± 0.028 | 1.053 ± 0.026 | 0.983 ± 0.024 | –
101.3 kPa, x1 = 0.2787 | – | 0.922 ± 0.023 | 0.842 ± 0.021 | 0.769 ± 0.02 | 0.706 ± 0.018 | –
101.3 kPa, x1 = 0.3856 | – | 0.747 ± 0.019 | 0.695 ± 0.018 | 0.634 ± 0.017 | – | –
101.3 kPa, x1 = 0.4939 | – | 0.615 ± 0.016 | 0.574 ± 0.016 | 0.53 ± 0.015 | – | –
101.3 kPa, x1 = 0.5945 | – | 0.522 ± 0.014 | 0.498 ± 0.014 | 0.465 ± 0.013 | – | –
101.3 kPa, x1 = 0.6887 | – | 0.463 ± 0.013 | 0.436 ± 0.013 | 0.413 ± 0.012 | – | –
101.3 kPa, x1 = 0.7735 | – | 0.421 ± 0.012 | 0.399 ± 0.012 | 0.38 ± 0.011 | – | –
101.3 kPa, x1 = 0.8539 | – | 0.391 ± 0.012 | 0.374 ± 0.011 | 0.355 ± 0.011 | – | –
101.3 kPa, x1 = 0.9294 | – | 0.365 ± 0.011 | 0.352 ± 0.011 | 0.334 ± 0.01 | – | –
101.32 kPa, x1 = 0.0214 | 2.052 ± 0.016 | – | 1.623 ± 0.013 | – | 1.298 ± 0.011 | 1.052 ± 0.009
101.32 kPa, x1 = 0.0926 | 1.636 ± 0.013 | – | 1.329 ± 0.011 | – | 1.089 ± 0.009 | 0.8994 ± 0.0076
101.32 kPa, x1 = 0.131 | 1.467 ± 0.012 | – | 1.195 ± 0.01 | – | 0.9876 ± 0.0082 | 0.8269 ± 0.0071
101.32 kPa, x1 = 0.2287 | 1.114 ± 0.009 | – | 0.9375 ± 0.0078 | – | 0.7852 ± 0.0067 | 0.665 ± 0.0058
101.32 kPa, x1 = 0.3661 | 0.8314 ± 0.007 | – | 0.7 ± 0.0061 | – | 0.5983 ± 0.0053 | 0.5179 ± 0.0047
101.32 kPa, x1 = 0.4647 | 0.6986 ± 0.006 | – | 0.5975 ± 0.0053 | – | 0.5164 ± 0.0047 | 0.451 ± 0.0042
101.32 kPa, x1 = 0.5532 | 0.5951 ± 0.0053 | – | 0.5163 ± 0.0047 | – | 0.4519 ± 0.0042 | 0.3984 ± 0.0038
101.32 kPa, x1 = 0.6088 | 0.5441 ± 0.0049 | – | 0.4725 ± 0.0044 | – | 0.4163 ± 0.004 | 0.3701 ± 0.0036
101.32 kPa, x1 = 0.7151 | 0.4665 ± 0.0043 | – | 0.4106 ± 0.0039 | – | 0.3663 ± 0.0036 | 0.3284 ± 0.0033
101.32 kPa, x1 = 0.8071 | 0.4122 ± 0.0039 | – | 0.3683 ± 0.0036 | – | 0.3317 ± 0.0033 | 0.3003 ± 0.0031
101.32 kPa, x1 = 0.8778 | 0.3835 ± 0.0037 | – | 0.345 ± 0.0034 | – | 0.3126 ± 0.0032 | 0.2849 ± 0.003
